Source: patent US20240120519A1, “NON-AQUEOUS REDOX FLOW BATTERIES” (ENI S.P.A., priority 2020, published 2024)
Read-outs that look alike come from different tables or passages of the source.

Legend:
[1] = Cyclic voltammetry measurements (oxidation-reduction potentials); assay type: physicochemical; details: for E°′ ACN (V vs Fc/Fc^+): acetonitrile; for E°′ ACN (V vs Fc/Fc^+) / E°′ PC (V vs Fc/Fc^+): 0.1 M TBABF4, glassy carbon working electrode, 25° C., normalised to Fc/Fc^+; for E°′ PC (V vs Fc/Fc^+): propylene carbonate
Protocol: Cyclic voltammetry measurements were carried out in a hemi-cell with a three-electrode configuration, with glassy carbon working electrode, platinum counter electrode and silver/silver chloride (Ag/AgCl) reference electrode. The oxidation-reduction potentials E°′Ox/Red were derived from the position of the forward peak (Epf) and the return peak (Epr):
and the values were normalised with respect to the intersolvent ferrocene/ferrocenium (Fc/Fc^+) couple.
Evaluations were carried out on an Autolab PGSTAT 128N analytical instrument at scan rates of 10, 20, 50, 70, 100, and 200 mV/s. All evaluations were carried out in triplicate at room temperature (25° C.). For the purpose, use was made of solutions containing: • benzothiadiazole (1) (Aldrich) (5×10^−3 M) and tetrabutylammonium tetrafluoro-borate (TBABF4) (Aldrich) (0.1 M) in acetonitrile (Aldrich) (non-aqueous liquid negative electrolyte of the negative compartment) (BTD); • benzothiadiazole (1) (Aldrich) (5×10^−3 M) and tetrabutylammonium tetrafluoro-borate (TBABF4) (Aldrich) (0.1 M) in propylene carbonate (Aldrich) (non-aqueous liquid negative electrolyte of the negative compartment) (BTD); • 4,7-di[2-(propyloxycarbonylethyloxy)phenyl]-benzothiadiazole [compound (2) obtained in Example 7] (5×10^−3 M) and tetrabutylammonium tetrafluoroborate (TBABF4) (Aldrich) (0.1 M) in acetonitrile (Aldrich) (non-aqueous liquid negative electrolyte of the negative compartment) (BTD); • 4,7-di[2-(propyloxycarbonylethyloxy)phenyl]-benzothiadiazole [compound (2) obtained in Example 7] (5×10^−3 M) and tetrabutylammonium tetrafluoroborate (TBABF4) (Aldrich) (0.1 M) in propylene carbonate (Aldrich) (non-aqueous liquid negative electrolyte of the negative compartment) [BTD (2)]; • 4,7-di[2-methoxycarbonylethyloxy)phenyl]-benzothiadiazole [compound (3) obtained in Example 1] (5×10^−3 M) and tetrabutylammonium tetrafluoroborate (TBABF4) (Aldrich) (0.1 M) in acetonitrile (Aldrich) (non-aqueous liquid negative electrolyte of the negative compartment) [BTD (3)]; • 4,7-di[2-(methoxycarbonylethyloxy)phenyl]-benzothiadiazole [compound (3) obtained in Example 1] (5×10^−3 M) and tetrabutylammonium tetrafluoroborate (TBABF4) (Aldrich) (0.1 M) in propylene carbonate (Aldrich) (non-aqueous liquid negative electrolyte of the negative compartment) [BTD (3)]; • 4,7-di[2-(2-(2-methoxyethoxy)ethoxy)phenyl]-benzothiadiazole [compound (4) obtained in Example 3] (5×10^−3 M) and tetrabutylammonium tetrafluoroborate (TBABF4) (Aldrich) (0.1 M) in acetonitrile (Aldrich) (non-aqueous liquid negative electrolyte of the negative compartment) [BTD (4)]; • 4,7-di[2-(2-(2-methoxyethoxy)ethoxy)phenyl]-benzothiadiazole [compound (4) obtained in Example 3] (5×10^−3 M) and tetrabutylammonium tetrafluoroborate (TBABF4) (Aldrich) (0.1 M) in propylene carbonate (Aldrich) (non-aqueous liquid negative electrolyte of the negative compartment) [BTD (4)]; • 4,7-di[2,6-di(propyloxycarbonylethyloxy)phenyl]-benzothiadiazole [compound (5) obtained in Example 4] (5×10^−3 M) and tetrabutylammonium tetrafluoroborate (TBABF4) (Aldrich) (0.1 M) in acetonitrile (Aldrich) (non-aqueous liquid negative electrolyte of the negative compartment) [BTD (5)]; • 4,7-di[2,6-di(propyloxycarbonylethyloxy)phenyl]-benzothiadiazole [compound (5) obtained in Example 4] (5×10^−3 M) and tetrabutylammonium tetrafluoroborate (TBABF4) (Aldrich) (0.1 M) in propylene carbonate (Aldrich) (non-aqueous liquid negative electrolyte of the negative compartment) [BTD (5)]; • 4,7-di[2,5-di(propyloxycarbonylethyloxy)phenyl]-benzothiadiazole [compound (6) obtained in Example 5] (5×10^−3 M) and tetrabutylammonium tetrafluoroborate (TBABF4) (Aldrich) (0.1 M) in acetonitrile (Aldrich) (non-aqueous liquid negative electrolyte of the negative compartment) [BTD (6)]; • 4,7-di[2,5-di(propyloxycarbonylethyloxy)phenyl]-benzothiadiazole [compound (6) obtained in Example 5] […]

[2] = Stability tests in cyclic voltammetry; assay type: physicochemical; details: 1×10^−3 M, 0.1 M TBABF4 in acetonitrile
Protocol: Stability tests were carried out using the same electrochemical cell as in Example 9.
For the purpose, use was made of solutions containing: • 4,7-di[2-(propyloxycarbonylethyloxy)phenyl]-benzothiadiazole [Compound (2) obtained in Example 2 or 7] (1×10^−3 M) and tetrabutylammonium tetrafluoroborate (TBABF4) (Aldrich) 0.1 M in acetonitrile (Aldrich) (non-aqueous liquid negative electrolyte of the negative compartment).

[3] = Non-aqueous redox flow battery (RFB) charge/discharge tests
Protocol: Charge-discharge tests were carried out using an electrochemical cell with a Teflon® membrane (DuPont), having a surface area equal to approximately 0.8 cm^2, placed between two platinum electrodes (Methrohm) having a surface area equal to approximately 0.07 cm^2. The electrochemical cell was then assembled and sealed in a container containing argon (Ar).
For the purpose, use was made of solutions containing: • 4,7-di[2-(propyloxycarbonylethyloxy)phenyl]-benzothiadiazole [Compound (2) obtained in Example 7]: (1×10^−3 M) and tetrabutylammonium tetrafluoroborate (TBABF4) (Aldrich) (0.1 M) in acetonitrile (Aldrich) (non-aqueous liquid negative electrolyte of the negative compartment), degassed with argon (Ar) and subjected to electrolysis in order to obtain benzothiadiazole in reduced form [(BTD (2)·^−)]; • tetrakisacetonitrile copper(I) tetrafluoroborate [Cu(NCCH3)4·BF4] (1×10^−3 M) and tetrabutylammonium tetrafluoroborate (TBABF4) (Aldrich) (0.1 M) in acetonitrile (Aldrich) (non-aqueous liquid positive electrolyte of the positive compartment) (Cu triflate), degassed with argon (Ar).
6 ml of the above solutions were introduced into the respective compartments.
The test was carried out using a potentiostat/galvanostat Autolab PGSTAT 128N (Metrohom) at room temperature (25° C.).
Charge and discharge curves were carried out to assess the performance of the electrolytes in the cell. […]

Row | E°′ ACN (V vs Fc/Fc^+) [1] | E°′ PC (V vs Fc/Fc^+) [1] | stability over 150 successive redox cycles [2] | potential difference (E°) in open circuit ([1]; solution in acetonitrile, E°=(E°1)−(E°2) against Cu triflate (0.62 V)) | SMILES | stability during charge/discharge (oxidation-reduction cycles) [3] | stability during charge/discharge (oxidation-reduction cycles) ([3]; 1×10^−3 M in acetonitrile, 0.1 M TBABF4, Teflon membrane, charge 2.5 V, discharge 0.5 V, 240 seconds each, 25° C.)
1 | −1.88 V vs Fc/Fc^+ | −1.83 V vs Fc/Fc^+ | – | – | CCOC(=O)CCCOc1ccc(OCCCC(=O)OCC)c(-c2ccc(-c3cc(OCCCC(=O)OCC)ccc3OCCCC(=O)OCC)c3nsnc23)c1 [Compound (6)] | – | –
2 | −2.00 V vs Fc/Fc^+ | −1.95 V vs Fc/Fc^+ | – | – | CCOC(=O)CCCOc1cccc(OCCCC(=O)OCC)c1-c1ccc(-c2c(OCCCC(=O)OCC)cccc2OCCCC(=O)OCC)c2nsnc12 [Compound (5)] | – | –
3 | −1.93 V vs Fc/Fc^+ | −1.88 V vs Fc/Fc^+ | – | – | CCOC(=O)CCCOc1ccc(-c2ccc(-c3ccc(OCCCC(=O)OCC)cc3OCCCC(=O)OCC)c3nsnc23)c(OCCCC(=O)OCC)c1 [Compound (7)] | – | –
4 | −1.91 V vs Fc/Fc^+ | −1.84 V vs Fc/Fc^+ | the cycles are superimposable | 2.53 V | CCOC(=O)CCCOc1ccccc1-c1ccc(-c2ccccc2OCCCC(=O)OCC)c2nsnc12 [Compound (2)] | good stability during oxidation-reduction cycles | –
5 | −1.86 V vs Fc/Fc^+ | −1.82 V vs Fc/Fc^+ | – | – | CCOC(=O)COc1ccccc1-c1ccc(-c2ccccc2OCC(=O)OCC)c2nsnc12 [Compound (3)] | – | –
6 | – | – | – | – | CC#N.CC#N.CC#N.CC#N.F[B-](F)(F)F.[Cu+] [Cu, tetrakisacetonitrile copper(I) tetrafluoroborate, reference compound] | – | good stability during oxidation-reduction cycles
7 | −1.90 V vs Fc/Fc^+ | −1.85 V vs Fc/Fc^+ | – | – | COCCOCCOc1ccccc1-c1ccc(-c2ccccc2OCCOCCOC)c2nsnc12 [Compound (4), 4,7-di[2-(2-(2-methoxyethoxy)ethoxy)phenyl]-benzothiadiazole] | – | –

Row | SMILES | E°′ ACN (V vs Fc/Fc^+) [1] | E°′ PC (V vs Fc/Fc^+) [1] | stability over 150 successive redox cycles [2] | potential difference (E°) in open circuit ([1]; solution in acetonitrile, E°=(E°1)−(E°2) against Cu triflate (0.62 V)) | stability during charge/discharge (oxidation-reduction cycles) [3] | stability during charge/discharge (oxidation-reduction cycles) ([3]; 1×10^−3 M in acetonitrile, 0.1 M TBABF4, Teflon membrane, charge 2.5 V, discharge 0.5 V, 240 seconds each, 25° C.)
8 | O=S(=O)([O-])C(F)(F)F.O=S(=O)([O-])C(F)(F)F.[Cu+2] [Cu triflate, copper(II) trifluoromethanesulphonate, reference compound] | 0.62 V vs Fc/Fc^+ | 0.43 V vs Fc/Fc^+ | – | – | – | –
